Measurements published in ChEMBL document CHEMBL3414499, “Characterization of two distinct structural classes of selective aldehyde dehydrogenase 1A1 inhibitors” (J Med Chem, 2015).
Calls of active or inactive are those of the source. No cut-off for these calls is given here.

Legend:
[1] = biological target: T1, Retinaldehyde dehydrogenase 3 (Homo sapiens, UniProt P47895); assay: Inhibition of recombinant human ALDH1A3 using propionaldehyde as substrate preincubated for 2 mins with NAD+ followed by substrate addition by UV-Vis spectrophotometric analysis
T1 sequence (P47895 whole entry): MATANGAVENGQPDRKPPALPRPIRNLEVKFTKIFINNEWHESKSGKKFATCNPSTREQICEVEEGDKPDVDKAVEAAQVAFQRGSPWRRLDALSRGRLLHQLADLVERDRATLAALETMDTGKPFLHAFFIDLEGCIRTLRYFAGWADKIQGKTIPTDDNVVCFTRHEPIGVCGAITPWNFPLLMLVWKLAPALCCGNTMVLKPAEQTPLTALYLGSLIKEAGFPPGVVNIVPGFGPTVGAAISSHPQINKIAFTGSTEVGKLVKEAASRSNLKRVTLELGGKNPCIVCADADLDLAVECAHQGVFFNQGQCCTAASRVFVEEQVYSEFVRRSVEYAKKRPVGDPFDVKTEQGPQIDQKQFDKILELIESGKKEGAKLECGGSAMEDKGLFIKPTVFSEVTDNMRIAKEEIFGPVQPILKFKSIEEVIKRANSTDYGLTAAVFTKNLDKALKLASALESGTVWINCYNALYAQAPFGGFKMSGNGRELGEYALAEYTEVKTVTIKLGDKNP

[2] = biological target: T2, Cytosolic 10-formyltetrahydrofolate dehydrogenase (Rattus norvegicus) (UniProt P28037); assay: Effect on rat carboxy terminal ALDH domain of ALDH1L1 at 20 uM preincubated for 2 mins with NAD+ followed by aldehyde substrate addition
T2 sequence (whole entry): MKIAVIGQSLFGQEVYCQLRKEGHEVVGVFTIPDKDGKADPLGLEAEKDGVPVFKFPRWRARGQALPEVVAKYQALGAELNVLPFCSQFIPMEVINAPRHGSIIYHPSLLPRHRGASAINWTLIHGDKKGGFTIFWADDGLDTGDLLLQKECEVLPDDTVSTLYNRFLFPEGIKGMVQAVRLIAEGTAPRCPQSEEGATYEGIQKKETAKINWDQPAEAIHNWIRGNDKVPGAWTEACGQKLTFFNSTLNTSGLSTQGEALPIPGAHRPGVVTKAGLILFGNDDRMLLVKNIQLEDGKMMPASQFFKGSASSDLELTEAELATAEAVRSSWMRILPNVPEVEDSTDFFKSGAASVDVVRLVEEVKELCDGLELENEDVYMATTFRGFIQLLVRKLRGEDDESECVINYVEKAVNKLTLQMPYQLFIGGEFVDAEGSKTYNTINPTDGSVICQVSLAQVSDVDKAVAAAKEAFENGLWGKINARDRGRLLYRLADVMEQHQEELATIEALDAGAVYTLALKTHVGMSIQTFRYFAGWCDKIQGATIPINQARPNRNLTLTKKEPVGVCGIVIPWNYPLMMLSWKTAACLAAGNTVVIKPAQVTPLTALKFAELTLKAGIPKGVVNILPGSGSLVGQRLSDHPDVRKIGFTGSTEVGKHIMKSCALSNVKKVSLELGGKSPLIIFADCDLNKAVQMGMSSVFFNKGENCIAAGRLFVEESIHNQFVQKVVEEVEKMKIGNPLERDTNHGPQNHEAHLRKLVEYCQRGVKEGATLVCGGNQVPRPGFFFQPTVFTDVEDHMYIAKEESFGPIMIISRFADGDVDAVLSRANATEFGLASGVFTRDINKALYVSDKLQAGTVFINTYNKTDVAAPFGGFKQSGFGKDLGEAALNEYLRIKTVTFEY

[3] = biological target: T3, Delta-1-pyrroline-5-carboxylate dehydrogenase, mitochondrial (Homo sapiens) (UniProt P30038); assay: Effect on human ALDH4A1 at 20 uM preincubated for 2 mins with NAD+ followed by aldehyde substrate addition
T3 sequence (whole entry): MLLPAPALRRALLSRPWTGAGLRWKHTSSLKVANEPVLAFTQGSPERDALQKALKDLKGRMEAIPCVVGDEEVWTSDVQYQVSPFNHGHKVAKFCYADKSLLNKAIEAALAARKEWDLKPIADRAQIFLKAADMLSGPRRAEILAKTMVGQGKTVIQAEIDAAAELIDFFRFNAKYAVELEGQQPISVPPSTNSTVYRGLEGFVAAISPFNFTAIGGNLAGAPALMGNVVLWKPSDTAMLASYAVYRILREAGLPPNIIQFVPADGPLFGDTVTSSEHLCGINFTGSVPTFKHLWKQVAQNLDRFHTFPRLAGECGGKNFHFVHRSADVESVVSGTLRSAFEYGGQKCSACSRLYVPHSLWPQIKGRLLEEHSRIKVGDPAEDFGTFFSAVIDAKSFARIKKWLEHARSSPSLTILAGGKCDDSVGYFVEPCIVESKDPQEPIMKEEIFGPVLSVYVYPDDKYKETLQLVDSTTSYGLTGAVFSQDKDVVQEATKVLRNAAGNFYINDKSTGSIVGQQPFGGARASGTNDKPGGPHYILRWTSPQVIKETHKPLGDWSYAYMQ

[4] = biological target: T4, Retinaldehyde dehydrogenase 3 (Homo sapiens) (UniProt P47895); assay: Effect on recombinant human ALDH1A3 using propionaldehyde as substrate at 20 uM preincubated for 2 mins with NAD+ followed by substrate addition by UV-Vis spectrophotometric analysis
T4 sequence (whole entry): T1 sequence (P47895 whole entry)

[5] = biological target: T5, Aldehyde dehydrogenase X, mitochondrial (Homo sapiens) (UniProt P30837); assay: Activation of recombinant human ALDH1B1 using propionaldehyde as substrate at 100 uM preincubated for 2 mins with NAD+ followed by substrate addition by UV-Vis spectrophotometric analysis
T5 sequence (whole entry): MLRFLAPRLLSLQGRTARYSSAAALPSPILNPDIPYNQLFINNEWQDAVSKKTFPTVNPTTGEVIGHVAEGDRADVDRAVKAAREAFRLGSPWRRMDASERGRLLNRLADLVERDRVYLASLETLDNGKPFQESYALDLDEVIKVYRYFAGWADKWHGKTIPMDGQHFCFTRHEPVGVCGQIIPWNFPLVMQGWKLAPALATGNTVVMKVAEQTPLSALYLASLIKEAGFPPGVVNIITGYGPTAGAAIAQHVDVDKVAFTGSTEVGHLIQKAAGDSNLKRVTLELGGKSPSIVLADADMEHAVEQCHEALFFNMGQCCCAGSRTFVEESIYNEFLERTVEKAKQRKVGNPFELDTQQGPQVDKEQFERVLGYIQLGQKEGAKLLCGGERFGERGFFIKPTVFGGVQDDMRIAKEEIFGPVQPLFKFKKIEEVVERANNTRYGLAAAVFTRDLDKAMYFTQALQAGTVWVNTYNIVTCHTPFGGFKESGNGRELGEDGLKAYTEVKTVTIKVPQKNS

| IC50 [1] | Activity [2] | Activity [3] | Activity [4] | Activity [5] | SMILES |
| --- | --- | --- | --- | --- | --- |
| > 100 µM | – | – | – | – | CCCCn1c(CN2CCN(c3ccc(OC)cc3)CC2)nc2c1c(=O)n(C)c(=O)n2C |
| > 20 µM | – | – | – | – | CCCCn1c(CN2CCN(c3cccc(Cl)c3)CC2)nc2c1c(=O)n(C)c(=O)n2C |
| – | inactive | inactive | inactive | Active | CC(C)CCn1c(CN2CCN(C(=O)c3ccco3)CC2)nc2c1c(=O)n(C)c(=O)n2C |
| – | – | – | – | Active | Cn1c(=O)c2c(nc(N3CCN(Cc4ccccc4)CC3)n2Cc2cccc(Cl)c2)n(C)c1=O |
